Where a SMILES comes first, the peptide text is derived from it. The star is where a group is joined. X1 = O=C(O)c1ccc2c(c1)nc(OCCCCCCCCC(=O)*)c1ccncc12
Key:
[1] = biological target: Serine/threonine-protein kinase Sgk1 (Homo sapiens) (UniProt O00141); assay: Inhibition of human SGK1 assessed as residual activity at 1 uM in presence of [33P]ATP by filter binding assay relative to control
[2] = biological target: Tyrosine-protein kinase Lck (Homo sapiens) (UniProt P06239); assay: Inhibition of human Lck assessed as residual activity at 1 uM in presence of 33P-ATP by filter-binding assay relative to control
[3] = biological target: Serine/threonine-protein kinase Chk1 (Homo sapiens) (UniProt O14757); assay: Inhibition of human CHK1 assessed as residual activity at 1 uM in presence of [33P]ATP by filter binding assay relative to control
[4] = biological target: Ribosomal protein S6 kinase beta-1 (Homo sapiens) (UniProt P23443); assay: Inhibition of human S6K1 assessed as residual activity at 1 uM in presence of 33P-ATP by filter-binding assay relative to control
[5] = biological target: Mitogen-activated protein kinase kinase kinase kinase 3 (Homo sapiens) (UniProt Q8IVH8); assay: Inhibition of human MAP4K3 assessed as residual activity at 1 uM in presence of [33P]ATP by filter binding assay relative to control
[6] = biological target: Mitogen-activated protein kinase 13 (Homo sapiens) (UniProt O15264); assay: Inhibition of human P38d MAPK assessed as residual activity at 1 uM in presence of [33P]ATP by filter binding assay relative to control
Homo sapiens [7] = species: Homo sapiens; assay: Inhibition of human PKA assessed as residual activity at 1 uM in presence of [33P]ATP by filter binding assay relative to control
[8] = biological target: Serine/threonine-protein kinase 33 (Homo sapiens) (UniProt Q9BYT3); assay: Inhibition of human STK33 assessed as residual activity at 1 uM in presence of [33P]ATP by filter binding assay relative to control
[9] = biological target: Dual specificity mitogen-activated protein kinase kinase 1 (Homo sapiens) (UniProt Q02750); assay: Inhibition of human MKK1 assessed as residual activity at 1 uM in presence of [33P]ATP by filter binding assay relative to control
[10] = biological target: Protein-tyrosine kinase 6 (Homo sapiens) (UniProt Q13882); assay: Inhibition of human BRK assessed as residual activity at 1 uM in presence of 33P-ATP by filter-binding assay relative to control
[11] = biological target: Calcium/calmodulin-dependent protein kinase type 1 (Homo sapiens) (UniProt Q14012); assay: Inhibition of human CAMK1 assessed as residual activity at 1 uM in presence of [33P]ATP by filter binding assay relative to control
[12] = biological target: MAP kinase-interacting serine/threonine-protein kinase 2 (Homo sapiens) (UniProt Q9HBH9); assay: Inhibition of human MNK2 assessed as residual activity at 1 uM in presence of [33P]ATP by filter binding assay relative to control
[13] = biological target: Insulin receptor (Homo sapiens) (UniProt P06213); assay: Inhibition of human IR assessed as residual activity at 1 uM in presence of [33P]ATP by filter binding assay relative to control
[14] = biological target: Eukaryotic translation initiation factor 2-alpha kinase 3 (Homo sapiens) (UniProt Q9NZJ5); assay: Inhibition of human EIF2AK3 assessed as residual activity at 1 uM in presence of 33P-ATP by filter-binding assay relative to control
Homo sapiens [15] = species: Homo sapiens; assay: Inhibition of human PHK assessed as residual activity at 1 uM in presence of [33P]ATP by filter binding assay relative to control
[16] = biological target: Mitogen-activated protein kinase kinase kinase 9 (Homo sapiens) (UniProt P80192); assay: Inhibition of human MLK1 assessed as residual activity at 1 uM in presence of 33P-ATP by filter-binding assay relative to control
[17] = biological target: Maternal embryonic leucine zipper kinase (Homo sapiens) (UniProt Q14680); assay: Inhibition of human MELK assessed as residual activity at 1 uM in presence of [33P]ATP by filter binding assay relative to control
[18] = biological target: Ribosomal protein S6 kinase alpha-1 (Homo sapiens) (UniProt Q15418); assay: Inhibition of human RSK1 assessed as residual activity at 1 uM in presence of 33P-ATP by filter-binding assay relative to control
[19] = test system: Serine/threonine-protein kinase MAP4K2 (Homo sapiens); assay: Inhibition of human GCK assessed as residual activity at 1 uM in presence of 33P-ATP by filter-binding assay relative to control
[20] = biological target: Tyrosine-protein kinase CSK (Homo sapiens) (UniProt P41240); assay: Inhibition of human CSK assessed as residual activity at 1 uM in presence of [33P]ATP by filter binding assay relative to control
[21] = biological target: Tyrosine-protein kinase SYK (Homo sapiens) (UniProt P43405); assay: Inhibition of human SYK assessed as residual activity at 1 uM in presence of [33P]ATP by filter binding assay relative to control
[22] = biological target: MAP kinase-interacting serine/threonine-protein kinase 1 (Homo sapiens) (UniProt Q9BUB5); assay: Inhibition of human MNK1 assessed as residual activity at 1 uM in presence of [33P]ATP by filter binding assay relative to control
[23] = biological target: Rho-associated protein kinase 2 (Homo sapiens) (UniProt O75116); assay: Inhibition of human ROCK2 assessed as residual activity at 1 uM in presence of [33P]ATP by filter binding assay relative to control
[24] = biological target: Ephrin type-B receptor 2 (Homo sapiens) (UniProt P29323); assay: Inhibition of human EPH-B2 assessed as residual activity at 1 uM in presence of [33P]ATP by filter binding assay relative to control
[25] = biological target: Receptor-interacting serine/threonine-protein kinase 2 (Homo sapiens) (UniProt O43353); assay: Inhibition of human RIPK2 assessed as residual activity at 1 uM in presence of 33P-ATP by filter-binding assay relative to control
[26] = biological target: Misshapen-like kinase 1 (Homo sapiens) (UniProt Q8N4C8); assay: Inhibition of human MINK1 assessed as residual activity at 1 uM in presence of [33P]ATP by filter binding assay relative to control
[27] = biological target: Calcium/calmodulin-dependent protein kinase kinase 2 (Homo sapiens) (UniProt Q96RR4); assay: Inhibition of human CAMKKb assessed as residual activity at 1 uM in presence of [33P]ATP by filter binding assay relative to control
[28] = biological target: MAP kinase-activated protein kinase 3 (Homo sapiens) (UniProt Q16644); assay: Inhibition of human MAPKAP-K3 assessed as residual activity at 1 uM in presence of [33P]ATP by filter binding assay relative to control
[29] = biological target: Serine/threonine-protein kinase MARK2 (Homo sapiens) (UniProt Q7KZI7); assay: Inhibition of human MARK2 assessed as residual activity at 1 uM in presence of [33P]ATP by filter binding assay relative to control
[30] = biological target: Discoidin domain-containing receptor 2 (Homo sapiens) (UniProt Q16832); assay: Inhibition of human DDR2 assessed as residual activity at 1 uM in presence of [33P]ATP by filter binding assay relative to control

Receptor-interacting serine/threonine-protein kinase 2 (Homo sapiens), sequence (O43353 whole entry): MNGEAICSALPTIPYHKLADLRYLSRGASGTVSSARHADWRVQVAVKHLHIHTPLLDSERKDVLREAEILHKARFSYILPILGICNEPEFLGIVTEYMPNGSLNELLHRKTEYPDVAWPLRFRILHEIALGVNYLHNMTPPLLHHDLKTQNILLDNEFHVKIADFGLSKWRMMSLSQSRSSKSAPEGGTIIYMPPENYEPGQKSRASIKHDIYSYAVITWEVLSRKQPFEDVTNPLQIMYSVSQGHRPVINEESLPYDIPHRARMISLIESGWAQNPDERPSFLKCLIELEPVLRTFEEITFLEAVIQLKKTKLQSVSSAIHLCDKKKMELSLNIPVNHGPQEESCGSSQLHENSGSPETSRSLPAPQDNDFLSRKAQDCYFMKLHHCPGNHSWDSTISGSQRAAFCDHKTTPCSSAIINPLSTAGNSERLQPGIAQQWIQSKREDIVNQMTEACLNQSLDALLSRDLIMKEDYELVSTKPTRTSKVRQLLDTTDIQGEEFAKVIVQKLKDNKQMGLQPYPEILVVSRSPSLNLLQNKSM
Misshapen-like kinase 1 (Homo sapiens), sequence (Q8N4C8 whole entry, looked up): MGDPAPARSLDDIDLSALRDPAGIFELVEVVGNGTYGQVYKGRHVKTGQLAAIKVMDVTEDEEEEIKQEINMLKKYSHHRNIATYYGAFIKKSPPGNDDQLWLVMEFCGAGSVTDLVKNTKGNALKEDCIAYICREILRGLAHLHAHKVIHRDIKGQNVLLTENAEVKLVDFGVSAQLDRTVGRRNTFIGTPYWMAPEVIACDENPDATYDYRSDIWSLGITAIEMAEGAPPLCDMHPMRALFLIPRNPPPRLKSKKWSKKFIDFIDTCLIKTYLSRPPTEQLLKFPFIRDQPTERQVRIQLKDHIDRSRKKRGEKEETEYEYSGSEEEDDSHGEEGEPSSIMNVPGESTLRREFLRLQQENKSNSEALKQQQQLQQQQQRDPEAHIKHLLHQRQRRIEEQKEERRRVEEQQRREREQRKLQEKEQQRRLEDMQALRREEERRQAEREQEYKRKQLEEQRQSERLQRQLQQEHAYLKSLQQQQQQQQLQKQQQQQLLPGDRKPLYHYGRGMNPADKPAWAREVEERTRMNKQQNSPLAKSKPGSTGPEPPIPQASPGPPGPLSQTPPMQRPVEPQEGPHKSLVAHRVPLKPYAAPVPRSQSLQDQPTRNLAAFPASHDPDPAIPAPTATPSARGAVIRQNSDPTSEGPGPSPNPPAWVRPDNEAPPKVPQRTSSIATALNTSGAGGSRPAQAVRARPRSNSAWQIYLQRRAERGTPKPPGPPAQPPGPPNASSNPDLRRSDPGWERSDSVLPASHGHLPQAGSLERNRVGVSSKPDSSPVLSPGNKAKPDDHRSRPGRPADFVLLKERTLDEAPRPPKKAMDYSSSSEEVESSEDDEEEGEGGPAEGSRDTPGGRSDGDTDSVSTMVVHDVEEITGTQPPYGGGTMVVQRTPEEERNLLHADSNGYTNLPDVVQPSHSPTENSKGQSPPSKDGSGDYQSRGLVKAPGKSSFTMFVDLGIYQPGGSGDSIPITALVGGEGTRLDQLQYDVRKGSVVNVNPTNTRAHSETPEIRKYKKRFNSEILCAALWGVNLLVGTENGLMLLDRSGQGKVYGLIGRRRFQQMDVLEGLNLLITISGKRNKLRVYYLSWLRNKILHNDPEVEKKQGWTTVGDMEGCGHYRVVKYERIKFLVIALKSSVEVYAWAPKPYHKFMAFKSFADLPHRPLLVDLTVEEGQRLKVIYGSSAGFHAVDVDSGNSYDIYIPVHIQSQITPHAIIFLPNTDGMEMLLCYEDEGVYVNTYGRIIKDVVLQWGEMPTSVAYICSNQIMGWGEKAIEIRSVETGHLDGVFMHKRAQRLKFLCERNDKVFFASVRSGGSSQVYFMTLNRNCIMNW
Protein-tyrosine kinase 6 (Homo sapiens), sequence (Q13882 whole entry, looked up): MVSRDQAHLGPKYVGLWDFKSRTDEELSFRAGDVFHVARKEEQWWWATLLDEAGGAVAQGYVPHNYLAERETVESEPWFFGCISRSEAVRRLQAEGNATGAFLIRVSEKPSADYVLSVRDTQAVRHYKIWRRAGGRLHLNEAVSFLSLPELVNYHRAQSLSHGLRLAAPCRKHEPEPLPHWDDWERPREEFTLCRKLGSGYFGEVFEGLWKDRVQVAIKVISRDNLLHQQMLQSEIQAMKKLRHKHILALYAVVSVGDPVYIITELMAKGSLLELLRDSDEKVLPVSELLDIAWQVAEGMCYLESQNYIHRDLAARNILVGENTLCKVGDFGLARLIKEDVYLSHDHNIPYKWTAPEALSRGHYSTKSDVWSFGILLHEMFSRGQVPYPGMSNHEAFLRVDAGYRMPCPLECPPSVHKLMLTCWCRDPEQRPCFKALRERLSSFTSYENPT
Tyrosine-protein kinase CSK (Homo sapiens), sequence (P41240 2-450 limits assumed): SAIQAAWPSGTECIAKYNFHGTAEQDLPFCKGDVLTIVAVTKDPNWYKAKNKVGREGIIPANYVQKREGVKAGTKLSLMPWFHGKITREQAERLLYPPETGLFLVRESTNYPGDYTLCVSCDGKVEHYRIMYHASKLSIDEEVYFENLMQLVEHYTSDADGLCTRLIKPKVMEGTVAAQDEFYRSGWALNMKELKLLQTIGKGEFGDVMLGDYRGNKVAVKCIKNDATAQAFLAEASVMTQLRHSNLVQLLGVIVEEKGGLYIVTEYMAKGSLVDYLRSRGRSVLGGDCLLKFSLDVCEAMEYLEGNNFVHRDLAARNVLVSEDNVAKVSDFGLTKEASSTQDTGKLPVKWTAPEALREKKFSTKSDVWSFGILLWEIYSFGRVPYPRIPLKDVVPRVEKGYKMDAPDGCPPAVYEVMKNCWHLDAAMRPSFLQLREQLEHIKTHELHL
Ephrin type-B receptor 2 (Homo sapiens), sequence (P29323 whole entry): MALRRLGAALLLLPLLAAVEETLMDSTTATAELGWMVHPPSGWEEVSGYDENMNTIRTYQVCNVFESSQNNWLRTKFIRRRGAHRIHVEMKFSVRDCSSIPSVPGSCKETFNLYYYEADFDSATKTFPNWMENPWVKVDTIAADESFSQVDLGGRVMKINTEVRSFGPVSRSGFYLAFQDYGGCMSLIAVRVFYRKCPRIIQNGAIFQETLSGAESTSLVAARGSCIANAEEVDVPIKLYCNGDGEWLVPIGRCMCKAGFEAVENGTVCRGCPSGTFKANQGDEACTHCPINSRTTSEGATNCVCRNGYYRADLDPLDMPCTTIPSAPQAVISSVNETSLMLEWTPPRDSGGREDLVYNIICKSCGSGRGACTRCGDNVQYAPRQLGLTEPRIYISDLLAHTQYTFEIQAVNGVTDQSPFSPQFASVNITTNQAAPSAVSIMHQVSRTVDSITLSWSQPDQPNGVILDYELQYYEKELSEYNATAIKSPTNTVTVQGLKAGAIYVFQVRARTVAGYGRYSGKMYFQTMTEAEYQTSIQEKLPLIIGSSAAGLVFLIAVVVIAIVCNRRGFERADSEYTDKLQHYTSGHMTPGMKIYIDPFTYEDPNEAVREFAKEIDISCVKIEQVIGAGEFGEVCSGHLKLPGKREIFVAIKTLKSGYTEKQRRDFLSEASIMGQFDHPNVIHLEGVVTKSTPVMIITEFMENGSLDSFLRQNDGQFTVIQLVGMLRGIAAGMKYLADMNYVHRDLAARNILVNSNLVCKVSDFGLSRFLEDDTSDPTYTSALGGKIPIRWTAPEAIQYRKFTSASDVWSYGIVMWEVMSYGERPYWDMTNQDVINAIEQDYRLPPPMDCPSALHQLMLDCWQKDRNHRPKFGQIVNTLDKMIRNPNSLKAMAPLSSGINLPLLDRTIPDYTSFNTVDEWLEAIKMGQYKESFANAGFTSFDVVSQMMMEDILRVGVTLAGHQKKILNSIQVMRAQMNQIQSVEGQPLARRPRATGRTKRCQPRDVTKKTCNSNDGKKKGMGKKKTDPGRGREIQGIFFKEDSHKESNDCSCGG
Ribosomal protein S6 kinase alpha-1 (Homo sapiens), sequence (Q15418 whole entry): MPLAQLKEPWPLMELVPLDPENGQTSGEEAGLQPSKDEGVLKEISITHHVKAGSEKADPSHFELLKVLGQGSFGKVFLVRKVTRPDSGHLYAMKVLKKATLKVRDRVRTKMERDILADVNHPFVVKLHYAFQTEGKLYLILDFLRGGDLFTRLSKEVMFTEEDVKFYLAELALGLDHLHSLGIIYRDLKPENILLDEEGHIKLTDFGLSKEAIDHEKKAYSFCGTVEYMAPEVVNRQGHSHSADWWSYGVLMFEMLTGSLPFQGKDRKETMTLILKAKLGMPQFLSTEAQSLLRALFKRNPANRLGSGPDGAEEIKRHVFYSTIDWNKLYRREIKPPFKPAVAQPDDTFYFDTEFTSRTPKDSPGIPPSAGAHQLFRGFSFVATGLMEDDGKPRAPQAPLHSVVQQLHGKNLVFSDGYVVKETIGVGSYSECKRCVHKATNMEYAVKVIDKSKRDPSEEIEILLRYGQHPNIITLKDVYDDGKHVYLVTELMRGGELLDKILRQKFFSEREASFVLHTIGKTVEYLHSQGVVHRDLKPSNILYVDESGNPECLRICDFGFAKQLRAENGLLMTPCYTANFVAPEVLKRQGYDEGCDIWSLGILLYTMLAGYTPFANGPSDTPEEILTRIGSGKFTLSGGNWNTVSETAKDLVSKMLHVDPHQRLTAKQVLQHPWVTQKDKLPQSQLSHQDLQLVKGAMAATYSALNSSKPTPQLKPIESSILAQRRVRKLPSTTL
MAP kinase-interacting serine/threonine-protein kinase 2 (Homo sapiens), sequence (Q9HBH9 whole entry, looked up): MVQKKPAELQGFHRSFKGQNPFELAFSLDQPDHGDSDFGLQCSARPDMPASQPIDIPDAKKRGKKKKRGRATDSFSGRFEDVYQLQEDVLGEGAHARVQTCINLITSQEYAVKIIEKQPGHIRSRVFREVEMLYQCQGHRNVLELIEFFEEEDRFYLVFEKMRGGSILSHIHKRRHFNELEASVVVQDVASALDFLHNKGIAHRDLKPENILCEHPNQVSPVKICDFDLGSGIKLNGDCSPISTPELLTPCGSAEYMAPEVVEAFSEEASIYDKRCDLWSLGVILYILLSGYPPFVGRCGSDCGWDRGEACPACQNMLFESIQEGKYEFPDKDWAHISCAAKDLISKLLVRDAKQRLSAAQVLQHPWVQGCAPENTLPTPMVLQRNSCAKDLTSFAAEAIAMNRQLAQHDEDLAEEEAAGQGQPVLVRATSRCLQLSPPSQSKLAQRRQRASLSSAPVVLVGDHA

Question: `NCCCC[C@H](NC(=O)[C@H](CC(=O)O)NC(=O)[C@H](CC(=O)O)NC(=O)[C@H](CC(=O)O)NC(=O)[C@H](CC(=O)O)NC(=O)[C@H](CC(=O)O)NC(=O)[C@H](CC(=O)O)NC(=O)CCCCCCCCOc1nc2cc(C(=O)O)ccc2c2cnccc12)C(=O)O` (X1-DDDDDDK-OH) was tested. Which Activity [1] did it give?
Answer: 84%

Question: And the Activity [2]?
Answer: 39%

Question: And the Activity [3]?
Answer: 91%

Question: And the Activity [4]?
Answer: 31%

Question: And the Activity [5]?
Answer: 95%

Question: And the Activity [6]?
Answer: 109%

Question: What about the Activity (Homo sapiens [7]) of the same molecule?
Answer: 94%

Question: What about the Activity [8] of the same molecule?
Answer: 83%

Question: And the Activity [9]?
Answer: 86%

Question: And the Activity [10]?
Answer: 51%

Question: What about the Activity [11] of the same molecule?
Answer: 89%

Question: And the Activity [12]?
Answer: 85%

Question: And the Activity [13]?
Answer: 85%

Question: And the Activity [14]?
Answer: 47%

Question: And the Activity (Homo sapiens [15])?
Answer: 97%

Question: What about the Activity [16] of the same molecule?
Answer: 42%

Question: What about the Activity [17] of the same molecule?
Answer: 93%

Question: What about the Activity [18] of the same molecule?
Answer: 50%

Question: And the Activity [19]?
Answer: 15%

Question: What about the Activity [20] of the same molecule?
Answer: 77%

Question: And the Activity [21]?
Answer: 84%

Question: What about the Activity [22] of the same molecule?
Answer: 67%

Question: And the Activity [23]?
Answer: 90%

Question: What about the Activity [24] of the same molecule?
Answer: 96%

Question: What about the Activity [25] of the same molecule?
Answer: 39%

Question: And the Activity [26]?
Answer: 100%

Question: And the Activity [27]?
Answer: 81%

Question: What about the Activity [28] of the same molecule?
Answer: 82%

Question: What about the Activity [29] of the same molecule?
Answer: 75%

Question: What about the Activity [30] of the same molecule?
Answer: 117%

— ChEMBL document CHEMBL4049403, “Oligo-aspartic acid conjugates with benzo[c][2,6]naphthyridine-8-carboxylic acid scaffold as picomolar inhibitors of CK2” (Bioorg Med Chem, 2017)
